Assay results taken from patent publication USRE39591E1, “6-O-substituted ketolides having antibacterial activity” (Abbott Laboratories, priority 1996, dated 2007).
≈ marks a conversion by molar mass, not a printed value.

Test system: up to 32 different microorganisms
Experiment: in vitro antibacterial activity (MIC), agar dilution on Brain Heart Infusion (BHI) agar with Steers replicator
Assay type: cell-based
Conditions: unit assumed
Summary of the method: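 Up to 32 strains were replicator-inoculated (1:100, or 1:10 for Micrococcus and Streptococcus) onto BHI agar plates holding serial compound dilutions and kept 20-24 h at 35-37° C. Plates were read visually against drug-free growth controls, with erythromycin A run alongside; MIC was the lowest concentration giving no growth, slight haze or sparse colonies.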

[1] = Candida albicans CCH 442 (code TT)
[2] = Enterococcus faecism ATCC 8043 (code II)
[3] = Escherichia coli DC-2 (code SS)
[4] = Escherichia coli JUHL (code QQ)
[5] = Haemophilis influenzae DILL AMP R (code WW)
[6] = Micrococcus luteus ATCC 4698 (code PP)
[7] = Micrococcus luteus ATCC 9341 (code OO)
[8] = Mycobacterium smegmatis ATCC 114 (code UU)
[9] = Nocardia Asteroides ATCC9970 (code VV)
[10] = Staphylococcus aureus 1775 (code GG)
[11] = Staphylococcus aureus A5177 (code BB)
[12] = Staphylococcus aureus A-5278 (code CC)
[13] = Staphylococcus aureus ATCC 6538P (code AA)
[14] = Staphylococcus aureus CMX 553 (code FF)
[15] = Staphylococcus aureus CMX 642A (code DD)
[16] = Staphylococcus aureus NCTC10649M (code EE)
[17] = Staphylococcus epidermidis 3519 (code HH)
[18] = Streptococcus Pneumonia 5649 (code ZZA)
[19] = Streptococcus Pneumonia 5979 (code ZZ)
[20] = Streptococcus Pneumonia ATCC6303 (code XX)
[21] = Streptococcus Pneumonia GYR 1171 (code YY)
[22] = Streptococcus agalactiae CMX 508 (code KK)
[23] = Streptococcus bovis A-5169 (code JJ)
[24] = Streptococcus pyogenes 930 (code MM)
[25] = Streptococcus pyogenes EES61 (code LL)
[26] = Streptococcus pyogenes PIU 2548 (code NN)

With `CC[C@H]1OC(=O)[C@H](C)C(=O)[C@H](C)[C@@H](O[C@@H]2O[C@H](C)C[C@H](N(C)C)[C@H]2O)[C@@](C)(OCCCc2ccccc2)C[C@@H](C)C(=O)[C@H](C)[C@H]2OC(=O)O[C@@]21C` [Example 73, Compound of Formula (IX): L is CO, T is O, R is —CH2CH2CH2-Phenyl] the MIC [1] was greater than 100 µg/mL, the MIC [2] was 0.1 µg/mL and the MIC [3] was greater than 100 µg/mL. The MIC [4] was greater than 100 µg/mL, the MIC (Escherichia coli SS (code RR)) was 3.1 µg/mL and the MIC [5] was 16 µg/mL. For the same compound, the MIC [6] was 0.2 µg/mL, the MIC [7] was 0.1 µg/mL and the MIC [8] was 0.78 µg/mL. For the same compound, the MIC [9] was 0.39 µg/mL, the MIC [10] was 100 µg/mL and the MIC [11] was 0.39 µg/mL. It also gave an MIC [12] greater than 100 µg/mL, an MIC [13] of 0.39 µg/mL and an MIC [14] of 0.39 µg/mL. For the same compound, the MIC [15] was 0.39 µg/mL, the MIC [16] was 0.39 µg/mL and the MIC [17] was 0.39 µg/mL. The MIC [18] was 1 µg/mL, the MIC [19] was 64 µg/mL and the MIC [20] was 0.125 µg/mL. The MIC [21] was 0.125 µg/mL, the MIC [22] was 0.05 µg/mL and the MIC [23] was 0.05 µg/mL. It also gave an MIC [24] of 12.5 µg/mL, an MIC [25] of 0.05 µg/mL and an MIC [26] of 0.2 µg/mL.

For `CCC1OC(=O)C(C)C(=O)C(C)C(OC2OC(C)CC(N(C)C)C2O)C(C)(OCC=Cc2ccc3cc(O)c(C(=O)Nc4ccccc4OC)cc3c2)CC(C)C(=O)C(C)C2NC(=O)OC12C` (centres unmarked) [Example 206, R is —CH2CH═CH-(3-hydroxy-2-(N-(2-methoxyphenyl)amido)-7-napthyl)], the MIC (organism code AA) was 0.78 µg/mL (≈ 0.839 µM), the MIC (organism code BB) was 0.39 µg/mL (≈ 0.419 µM) and the MIC (organism code CC) was greater than 100 µg/mL. For the same compound, the MIC (organism code DD) was 0.78 µg/mL (≈ 0.839 µM), the MIC (organism code EE) was 0.78 µg/mL (≈ 0.839 µM) and the MIC (organism code FF) was 0.78 µg/mL (≈ 0.839 µM). The MIC (organism code GG) was greater than 100 µg/mL, the MIC (organism code HH) was 0.78 µg/mL (≈ 0.839 µM) and the MIC (organism code II) was 0.39 µg/mL (≈ 0.419 µM). For the same compound, the MIC (organism code JJ) was 0.1 µg/mL (≈ 0.108 µM), the MIC (organism code KK) was 0.39 µg/mL (≈ 0.419 µM) and the MIC (organism code LL) was 0.39 µg/mL (≈ 0.419 µM). For the same compound, the MIC (organism code MM) was greater than 100 µg/mL, the MIC (organism code NN) was 1.56 µg/mL (≈ 1.68 µM) and the MIC (organism code OO) was 0.2 µg/mL (≈ 0.215 µM). For the same compound, the MIC (organism code PP) was 1.56 µg/mL (≈ 1.68 µM), the MIC (organism code QQ) was greater than 100 µg/mL and the MIC (organism code RR) was 25 µg/mL (≈ 26.9 µM). It also gave an MIC (organism code SS) greater than 100 µg/mL, an MIC (organism code TT) greater than 100 µg/mL and an MIC (organism code UU) of 3.1 µg/mL (≈ 3.33 µM). It also gave an MIC (organism code VV) of 3.1 µg/mL (≈ 3.33 µM), an MIC (organism code WW) greater than 128 µg/mL and an MIC (organism code XX) of 0.5 µg/mL (≈ 0.538 µM). It also gave an MIC (organism code YY) of 0.5 µg/mL (≈ 0.538 µM), an MIC (organism code ZZ) greater than 128 µg/mL and an MIC (organism code ZZA) of 4 µg/mL (≈ 4.3 µM).

Compound `CCC1OC(=O)C(C)C(=O)C(C)C(OC2OC(C)CC(N(C)C)C2O)C(C)(OCC=Cc2cnc3cccc([N+](=O)[O-])c3c2)CC(C)C(=O)C(C)C2NC(=O)OC12C` (centres unmarked) [Example 210, R is —CH2CH═CH-(5-nitro-3-quinolyl)] has an MIC (organism code AA) of 0.1 µg/mL (≈ 0.123 µM), an MIC (organism code CC) greater than 100 µg/mL and an MIC (organism code DD) of 0.1 µg/mL (≈ 0.123 µM). It also gave an MIC (organism code EE) of 0.1 µg/mL (≈ 0.123 µM), an MIC (organism code FF) of 0.1 µg/mL (≈ 0.123 µM) and an MIC (organism code GG) greater than 100 µg/mL. For the same compound, the MIC (organism code HH) was 0.1 µg/mL (≈ 0.123 µM), the MIC (organism code II) was 0.02 µg/mL (≈ 0.0247 µM) and the MIC (organism code JJ) was no more than 0.005 µg/mL. The MIC (organism code KK) was no more than 0.005 µg/mL, the MIC (organism code LL) was 0.01 µg/mL (≈ 0.0123 µM) and the MIC (organism code MM) was 0.78 µg/mL (≈ 0.962 µM). It also gave an MIC (organism code NN) of 0.2 µg/mL (≈ 0.247 µM), an MIC (organism code OO) of 0.02 µg/mL (≈ 0.0247 µM) and an MIC (organism code PP) of 0.2 µg/mL (≈ 0.247 µM). For the same compound, the MIC (organism code QQ) was 50 µg/mL (≈ 61.7 µM), the MIC (organism code RR) was 0.2 µg/mL (≈ 0.247 µM) and the MIC (organism code SS) was greater than 100 µg/mL. For the same compound, the MIC (organism code TT) was greater than 100 µg/mL, the MIC (organism code UU) was 0.78 µg/mL (≈ 0.962 µM) and the MIC (organism code VV) was 0.02 µg/mL (≈ 0.0247 µM). It also gave an MIC (organism code WW) of 3 µg/mL (≈ 3.7 µM), an MIC (organism code XX) of 0.015 µg/mL (≈ 0.0185 µM) and an MIC (organism code YY) of no more than 0.004 µg/mL. The MIC (organism code ZZ) was 4 µg/mL (≈ 4.93 µM) and the MIC (organism code ZZA) was 0.25 µg/mL (≈ 0.308 µM).

For `CC[C@H]1OC(=O)[C@H](C)C(=O)[C@H](C)[C@@H](O[C@@H]2O[C@H](C)C[C@H](N(C)C)[C@H]2O)[C@@](C)(OCC=NO)C[C@@H](C)C(=O)[C@H](C)[C@@H](O)[C@]1(C)O` [Example 5, Compound of Formula (VIII): X is O, R is —CH2CH═NOH], the MIC [1] was greater than 100 µg/mL, the MIC [2] was 6.2 µg/mL and the MIC [3] was greater than 100 µg/mL. The MIC [4] was greater than 100 µg/mL, the MIC (Escherichia coli SS (code RR)) was 6.2 µg/mL and the MIC [5] was greater than 128 µg/mL. For the same compound, the MIC [6] was 6.2 µg/mL, the MIC [7] was 0.78 µg/mL and the MIC [8] was greater than 100 µg/mL. The MIC [9] was 6.2 µg/mL, the MIC [10] was greater than 100 µg/mL and the MIC [11] was 6.2 µg/mL. For the same compound, the MIC [12] was greater than 100 µg/mL, the MIC [13] was 6.2 µg/mL and the MIC [14] was 12.5 µg/mL. The MIC [15] was 12.5 µg/mL, the MIC [16] was 12.5 µg/mL and the MIC [17] was 6.2 µg/mL. For the same compound, the MIC [18] was 16 µg/mL, the MIC [19] was greater than 128 µg/mL and the MIC [20] was 8 µg/mL. For the same compound, the MIC [21] was 4 µg/mL, the MIC [22] was 1.56 µg/mL and the MIC [23] was 1.56 µg/mL. The MIC [24] was greater than 100 µg/mL, the MIC [25] was 3.1 µg/mL and the MIC [26] was 6.2 µg/mL.
